US20260034119A1, “5-METHOXY-N,N-[…][…], THEIR […], AND METHODS FOR TREATMENT OF NEUROLOGICAL, […], AND SUBSTANCE USE DISORDERS” (priority 2023, published 2026)
Several values for one entry are separate records, joined by “and”; a condition that tells them apart may be missing. Identical values can stand only once. Like-named read-outs stand apart in the source and are kept apart here.

Experiments:
[1] = biological target: T1, human 5-HT1A (Homo sapiens, UniProt P08908); experiment: 5-HT1A-mediated cAMP reduction assay (GloSensor, HEK293-T)
T1 sequence (P08908 1-422): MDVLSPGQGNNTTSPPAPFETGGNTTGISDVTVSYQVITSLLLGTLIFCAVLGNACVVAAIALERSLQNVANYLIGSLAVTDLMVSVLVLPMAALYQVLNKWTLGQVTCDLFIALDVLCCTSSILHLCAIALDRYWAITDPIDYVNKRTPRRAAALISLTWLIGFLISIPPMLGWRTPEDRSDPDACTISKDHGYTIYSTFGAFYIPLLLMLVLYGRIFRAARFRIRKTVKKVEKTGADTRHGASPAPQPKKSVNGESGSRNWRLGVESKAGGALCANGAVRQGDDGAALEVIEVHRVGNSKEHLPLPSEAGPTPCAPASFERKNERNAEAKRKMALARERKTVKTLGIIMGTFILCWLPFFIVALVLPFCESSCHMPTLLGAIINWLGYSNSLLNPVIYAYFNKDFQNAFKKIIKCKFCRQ

[2] = biological target: T2, 5-HT1A (Homo sapiens, UniProt P08908); experiment: BRET signaling assay: 5-HT1A-mediated activation of heterotrimeric Gi1 (TRUPATH, HEK293-T); details: for Emax: HEK-293T, read-out: Emax, 5-HT1A-mediated activation of Gi1 (BRET); for Efficacy as %5HT 5-HT1A BRET Gi1: Table 6, commercial ligands
[3] = Mouse brain tissue binding; assay type: in vitro ADME
[4] = biological target: T3, 5-HT2A (Homo sapiens, UniProt P28223); experiment: cell-based
[5] = biological target: T1, human 5-HT1A; experiment: cell-based
[6] = biological target: T2, 5-HT1A; experiment: cell-based
[7] = biological target: T3, 5-HT2A
[8] = EC50 (nM) Mean BRET Gq-2A, Table 2
[9] = EC50 (nM) Mean BRET Gi1-1A, Table 2
[10] = EC50 (nM) Mean Gio(cAMP)-1A, Table 2
[11] = EC50 (nM) 5-HT1A cAMP, Table 6, commercial ligands

T3 sequence (P28223 whole entry): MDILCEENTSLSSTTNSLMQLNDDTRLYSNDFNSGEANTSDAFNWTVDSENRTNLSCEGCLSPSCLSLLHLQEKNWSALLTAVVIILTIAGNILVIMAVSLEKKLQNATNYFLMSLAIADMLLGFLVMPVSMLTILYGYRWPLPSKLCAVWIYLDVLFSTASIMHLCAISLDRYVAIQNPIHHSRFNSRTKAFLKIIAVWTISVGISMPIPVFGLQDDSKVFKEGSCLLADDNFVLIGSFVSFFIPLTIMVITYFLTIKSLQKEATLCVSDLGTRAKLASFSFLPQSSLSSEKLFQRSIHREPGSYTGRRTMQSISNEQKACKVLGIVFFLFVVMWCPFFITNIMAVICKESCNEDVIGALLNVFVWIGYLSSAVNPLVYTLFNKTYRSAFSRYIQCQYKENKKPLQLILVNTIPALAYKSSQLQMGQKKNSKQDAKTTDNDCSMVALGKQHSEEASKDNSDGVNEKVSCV

O=C1CC2(CCCC2)CC(=O)N1CCCCN1CCN(c2ncccn2)CC1 [Buspirone, buspirone, reference compound]
Efficacy as %5HT 5-HT1A cAMP ([1]; Table 6, commercial ligands): 96.0 %5HT
Emax [2]: 93.4%
Efficacy as %5HT 5-HT1A BRET Gi1 [2]: 93.4 %5HT

NC(=O)N1c2ccccc2C=Cc2ccccc21 [Carbamazepine]
% Bound Mean [3]: 88.2%
% Recovery [3]: 72%
% Unbound [3]: 11.8%
fu [3]: 0.118
% Compound remaining at 4 h ([3]; 4 h): 96%
% Bound R1 ([3]; replicate R1): 89.0%

COc1ccc2[nH]cc(CCN(C)C)c2c1F [Compound 1]
EC50 [4, 8]: 86.5 nM
EC50 ([1]; pEC50 Gio(cAMP)-1A, Table 2): 0.186 nM
EC50 ([2]; EC50 (nM) Mean BRET Gi1-1A): 1.77 nM

CCN(C)CCc1c[nH]c2ccc(OC)c(F)c12 [Compound 2]
EC50 [4, 8]: 99.3 nM
EC50 ([1]; pEC50 Gio(cAMP)-1A, Table 2): 0.316 nM
EC50 [2, 9]: 1.77 nM

CCN(CC)CCc1c[nH]c2ccc(OC)c(F)c12 [Compound 3]
EC50 [4, 8]: 673 nM
EC50 [1, 10]: 0.21 nM
EC50 ([1]; pEC50 Gio(cAMP)-1A, Table 2): 0.204 nM
EC50 [2, 9]: 3.18 nM

CCCN(C)CCc1c[nH]c2ccc(OC)c(F)c12 [Compound 4]
EC50 [4, 8]: 115 nM
EC50 ([1]; pEC50 Gio(cAMP)-1A, Table 2): 0.417 nM
EC50 [2, 9]: 3.06 nM

CCCN(CC)CCc1c[nH]c2ccc(OC)c(F)c12 [Compound 5]
EC50 [4, 8]: 155 nM
EC50 ([1]; pEC50 Gio(cAMP)-1A, Table 2): 0.151 nM
EC50 [2, 9]: 0.95 nM

CCCN(CCC)CCc1c[nH]c2ccc(OC)c(F)c12 [Compound 6]
EC50 [4, 8]: 142 nM
EC50 [1, 10]: 1.31 nM
EC50 [2, 9]: 3.7 nM

COc1ccc2[nH]cc(CCN(C)C(C)C)c2c1F [Compound 7]
EC50 [4, 8]: 152 nM
EC50 [1, 10]: 2.98 nM
EC50 [2, 9]: 14.2 nM

CCCN(CCc1c[nH]c2ccc(OC)c(F)c12)C(C)C [Compound 8]
EC50 [4, 8]: 249 nM
EC50 [1, 10]: 5.96 nM
EC50 ([1]; pEC50 Gio(cAMP)-1A, Table 2): 5.89 nM
EC50 [2, 9]: 16.8 nM
EC50 ([2]; pEC50 BRET Gi1-1A, Table 2): 16.6 nM

CCN(C)CCc1c[nH]c2ccc(OC)cc12 [Compound 9]
EC50 [5]: 4.44 nM
EC50 [6]: 25.9 nM
EC50 [4]: 37.7 nM

COc1ccc2[nH]cc(CCN(C(C)C)C(C)C)c2c1F [Compound 9]
EC50 [4, 8]: 338 nM
EC50 [1, 10]: 6 nM
EC50 [2, 9]: 35.8 nM

C=CCN(C)CCc1c[nH]c2ccc(OC)c(F)c12 [Compound 10]
EC50 [4, 8]: 156 nM
EC50 [1, 10]: 2.57 nM
EC50 [2, 9]: 8.41 nM

CCCN(C)CCc1c[nH]c2ccc(OC)cc12 [Compound 10]
EC50 [5]: 18.6 nM
EC50 [6]: 60.3 nM
EC50 [4]: 28.3 nM

CCN(CC)CCc1c[nH]c2ccc(OC)cc12 [Compound 11]
EC50 [5]: 11 nM
EC50 [6]: 37.1 nM
EC50 [4]: 172 nM

COc1ccc2[nH]cc(CCN3CCCC3)c2c1F [Compound 11]
EC50 [4, 8]: 300 nM
EC50 [1, 10]: 0.03 nM
EC50 ([1]; pEC50 Gio(cAMP)-1A, Table 2): 0.0282 nM
EC50 ([2]; pEC50 BRET Gi1-1A, Table 2): 0.372 nM

CCCN(CC)CCc1c[nH]c2ccc(OC)cc12 [Compound 12]
EC50 [5]: 2.47 nM
EC50 [6]: 8.36 nM
EC50 [4]: 22.1 nM

COc1ccc2[nH]cc(CCN3CCCCC3)c2c1F [Compound 12]
EC50 [1, 10]: 2.42 nM
EC50 [2, 9]: 8.97 nM

CCCN(CCC)CCc1c[nH]c2ccc(OC)cc12 [Compound 13]
EC50 [5]: 3.57 nM and 4.37 nM
EC50 [6]: 15.4 nM
EC50 [4]: 20.2 nM

COc1ccc2[nH]cc(CCN3CC=CC3)c2c1F [Compound 13]
EC50 [4, 8]: 120 nM
EC50 ([1]; pEC50 Gio(cAMP)-1A, Table 2): 0.00229 nM
EC50 ([2]; pEC50 BRET Gi1-1A, Table 2): 0.219 nM

COc1ccc2[nH]cc(CCN(C)C(C)C)c2c1 [Compound 14]
EC50 [5]: 51.8 nM
EC50 [6]: 112 nM
EC50 [4]: 17.3 nM

CCCN(CCc1c[nH]c2ccc(OC)cc12)C(C)C [Compound 15]
EC50 [5]: 26.7 nM
EC50 [6]: 101 nM and 100 nM
EC50 [4]: 51.2 nM

C=CCN(C)CCc1c[nH]c2ccc(OC)cc12 [Compound 16]
EC50 [5]: 9.64 nM
EC50 [6]: 42.7 nM
EC50 [4]: 24.5 nM and 25.7 nM

CN(C)CCc1c[nH]c2ccc(O)c(F)c12 [Compound 16]
EC50 [4, 8]: 7.46 nM
EC50 ([1]; pEC50 Gio(cAMP)-1A, Table 2): 0.251 nM
EC50 [2, 9]: 1.13 nM

COc1ccc2[nH]cc(CCN3CCCC3)c2c1 [Compound 18]
EC50 [5]: 0.16 nM and 0.166 nM
EC50 [6]: 2.13 nM
EC50 [4]: 81.5 nM

COc1ccc2[nH]cc(CCN3CC=CC3)c2c1 [Compound 21, 3-(2-(2,5-dihydro-1H-pyrrol-1-yl)ethyl)-5-methoxy-1H-indole]
EC50 [6]: 0.257 nM
EC50 [4]: 9.91 nM
EC50 ([2]; Gi BRET EC50): 0.3 nM
further increase in potency at 5-HT1A ([2]; relative to 5-MeO-PyrT): ~8 fold

CCN(CC)CCc1c[nH]c2ccc(OC)c(F)c12 [Compound 27, N,N-diethyl-2-(4-fluoro-5-methoxy-1H-indol-3-yl)ethan-1-amine]
EC50 [5]: 0.21 nM and 0.204 nM
EC50 [6]: 3.18 nM
EC50 [4]: 673 nM

COc1ccc2[nH]cc(CCN(C)C(C)C)c2c1F [Compound 31, N-(2-(4-fluoro-5-methoxy-1H-indol-3-yl)ethyl)-N-methylpropan-2-amine]
EC50 [5]: 2.98 nM
EC50 [6]: 14.2 nM
EC50 [4]: 152 nM

CCCN(CCc1c[nH]c2ccc(OC)c(F)c12)C(C)C [Compound 32, N-(2-(4-fluoro-5-methoxy-1H-indol-3-yl)ethyl)-N-isopropylpropan-1-amine]
EC50 [5]: 5.96 nM and 5.89 nM
EC50 [6]: 16.8 nM and 16.6 nM
EC50 [4]: 249 nM

COc1ccc2[nH]cc(CCN(C(C)C)C(C)C)c2c1F [Compound 33, N-(2-(4-fluoro-5-methoxy-1H-indol-3-yl)ethyl)-N-isopropylpropan-2-amine]
EC50 [5]: 6 nM
EC50 [6]: 35.8 nM
EC50 [4]: 338 nM

COc1ccc2[nH]cc(CCN3CCCC3)c2c1F [Compound 35, 4-fluoro-5-methoxy-3-(2-(pyrrolidin-1-yl)ethyl)-1H-indole]
EC50 [5]: 0.03 nM and 0.0282 nM
EC50 [6]: 0.372 nM
EC50 [4]: 300 nM

COc1ccc2[nH]cc(CCN3CCCCC3)c2c1F [Compound 36, 4-fluoro-5-methoxy-3-(2-(piperidin-1-yl)ethyl)-1H-indole]
EC50 [5]: 2.42 nM
EC50 [6]: 8.97 nM

CN(C)CCc1c[nH]c2ccc(O)cc12 [Compound 49, Bufotenine, reference compound]
EC50 [6]: 9.29 nM

CN(C)CCc1c[nH]c2cccc(O)c12 [Compound 52, Psilocin, reference compound]
EC50 [5]: 512 nM
EC50 [6]: 1080 nM and 1070 nM

CN(C)CCc1c[nH]c2ccccc12 [DMT]
EC50 ([7]; Gq BRET, 5-HT2A WT): 94.4 nM
pEC50 ([7]; Gq BRET, 5-HT2A WT): (7.03,

COc1cc(CCN)cc(OC)c1OC [Mescaline, reference compound]
efficacy at 5-HT2A [7]: ~100 % of that of serotonin
relative potency at 5-HT1A and 5-HT2A ([7]; BRET, FIG. 33A): more potent at 5-HT2A
Efficacy as %5HT 5-HT2A BRET Gq ([7]; Table 6, commercial ligands): 92.6 %5HT
EC50 ([4]; EC50 (nM) 5-HT2A BRET Gq, Table 6, commercial ligands): 2400 nM
EC50 ([2]; EC50 (nM) 5-HT1A BRET Gi1, Table 6, commercial ligands): 19600 nM
Efficacy as %5HT 5-HT1A BRET Gi1 [2]: 42.0 %5HT

c1ccc2c(N3CCNCC3)cccc2c1 [N-(1-naphthyl)piperazine, N-(1-Napthyl)piperazine, reference compound]
EC50 [1, 11]: 50.3 nM
Efficacy as %5HT 5-HT1A cAMP ([1]; Table 6, commercial ligands): 137.0 %5HT

O=C1[C@@H]2[C@H]3CC[C@H](C3)[C@@H]2C(=O)N1CCCCN1CCN(c2ncccn2)CC1 [Tandospirone, reference compound]
EC50 [1, 11]: 1.51 nM
Efficacy as %5HT 5-HT1A cAMP ([1]; Table 6, commercial ligands): 96.3 %5HT

N#Cc1ccc2[nH]cc(CCCCN3CCN(c4ccc5oc(C(N)=O)cc5c4)CC3)c2c1 [Vilazodone, vilazodone, reference compound]
Efficacy as %5HT 5-HT1A cAMP ([1]; Table 6, commercial ligands): 110.5 %5HT
activity at concentrations as low as ([2]; 5-HT1A Gi1 BRET): 30 pM
Emax [2]: 97.4%
Efficacy as %5HT 5-HT1A BRET Gi1 [2]: 97.4 %5HT

CN(C)CCc1c[nH]c2cccc(O)c12 [psilocin, Psilocin]
efficacy at 5-HT2A [7]: ~50 % of that of serotonin
